pIC50: −log10 of the molar value. Structures can show the parent of a compound that is named as a salt.
Key:
Cbl-b = Cbl-b (Homo sapiens (Human), UniProt Q13191); assay: Cbl-b LCK Ub TR-FRET assay (Cbl-b Lck HTRF); assay type: biochemical
Summary of the method: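 Biotin-Cbl-b preincubated with compound (10-point 3-fold series) 60 min, then His-LCK with 1 mM ATP (2× mixture) added for 90 min at room temperature. Ubiquitination detected by TR-FRET using HA-ubiquitin/UBE2D2 adduct, anti-HA-D2 and streptavidin-Eu; IC50 normalised to no-LCK and DMSO controls.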

c-Cbl = c-Cbl (Homo sapiens (Human), UniProt P22681); assay: C-Cbl LCK Ub TR-FRET assay (c-cbl Lck HTRF); assay type: biochemical; conditions: for (fold-selectivity): C-cbl Lck HTRF IC50 relative to Cbl-b Lck HTRF IC50
Summary of the method: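 After the ubiquitination reaction, detection mixture was added and plates incubated 20 min at room temperature before reading. IC50 values were calculated with wells lacking LCK as the low control and DMSO as the high control.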

Chain of c-Cbl (P22681 47-435): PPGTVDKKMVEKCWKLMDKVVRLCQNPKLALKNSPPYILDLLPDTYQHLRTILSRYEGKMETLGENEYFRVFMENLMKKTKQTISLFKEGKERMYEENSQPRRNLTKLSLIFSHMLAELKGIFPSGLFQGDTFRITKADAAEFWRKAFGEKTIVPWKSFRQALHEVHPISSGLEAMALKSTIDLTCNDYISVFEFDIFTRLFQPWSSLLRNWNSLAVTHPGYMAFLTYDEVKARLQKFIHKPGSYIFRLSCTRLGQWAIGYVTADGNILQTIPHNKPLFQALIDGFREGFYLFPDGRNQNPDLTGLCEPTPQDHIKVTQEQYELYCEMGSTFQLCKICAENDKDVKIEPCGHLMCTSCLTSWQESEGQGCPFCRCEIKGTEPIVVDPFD
Chain of Cbl-b (Q13191 40-426): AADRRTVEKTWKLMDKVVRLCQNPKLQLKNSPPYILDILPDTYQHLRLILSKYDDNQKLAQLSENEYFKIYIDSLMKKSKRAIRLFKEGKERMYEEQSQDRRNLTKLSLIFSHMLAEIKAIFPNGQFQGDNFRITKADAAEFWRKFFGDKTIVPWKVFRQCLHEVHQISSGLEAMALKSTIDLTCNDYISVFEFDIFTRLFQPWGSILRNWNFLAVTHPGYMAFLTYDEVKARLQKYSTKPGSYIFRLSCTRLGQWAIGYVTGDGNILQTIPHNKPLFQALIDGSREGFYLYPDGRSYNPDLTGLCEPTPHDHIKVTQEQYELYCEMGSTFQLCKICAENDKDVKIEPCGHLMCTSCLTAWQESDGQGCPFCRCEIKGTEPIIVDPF

| Structure (SMILES) | pIC50 (Cbl-b) | pIC50 (c-Cbl) | (fold-selectivity) (c-Cbl) |
| --- | --- | --- | --- |
| CC(=O)Nc1cc(C2(Cc3nncn3C)CCC2)cc(N2Cc3c(cc(CN4CCN(C)C[C@@H]4C(C)C)cc3C(F)(F)F)C2=O)n1 [Compound 330, (S)-N-(6-(6-((2-isopropyl-4-methylpiperazin-1-yl)methyl)-1-oxo-4-(trifluoromethyl)isoindolin-2-yl)-4-(1-((4-methyl-4H-1,2,4-triazol-3-yl)methyl)cyclobutyl)pyridin-2-yl)acetamide] | 6.00 | 5.92 | (1.2x) |
| Cn1cnnc1CC1(c2cccc(N3Cc4c(cc(CNC5(C)COC5)cc4C(F)(F)F)C3=O)c2)CC(F)(F)C1 [Compound 332, 2-(3-(3,3-difluoro-1-((4-methyl-4H-1,2,4-triazol-3-yl)methyl)cyclobutyl)phenyl)-6-(((3-methyloxetan-3-yl)amino)methyl)-4-(trifluoromethyl)isoindolin-1-one] | 7.55 | 7.47 | (1.2x) |
| CC(C)[C@H]1CN(C)CCN1Cc1cc2c(c(C(F)(F)F)c1)CN(c1cc(C3(Cc4nncn4C)CCC3)cc(NC(=O)CCl)n1)C2=O [Compound 333, (S)-2-chloro-N-(6-(6-((2-isopropyl-4-methylpiperazin-1-yl)methyl)-1-oxo-4-(trifluoromethyl)isoindolin-2-yl)-4-(1-((4-methyl-4H-1,2,4-triazol-3-yl)methyl)cyclobutyl)pyridin-2-yl)acetamide] | 7.28 | 7.28 | (1.0x) |
| Cn1cnnc1CC1(c2cccc(N3Cc4c(cc(CNCC5CC5)cc4C(F)(F)F)C3=O)c2)CC(F)(F)C1 [Compound 334, 6-(((cyclopropylmethyl)amino)methyl)-2-(3-(3,3-difluoro-1-((4-methyl-4H-1,2,4-triazol-3-yl)methyl)cyclobutyl)phenyl)-4-(trifluoromethyl)isoindolin-1-one] | 7.96 | 8.09 | (0.72) x |
| Cn1cnnc1CC1(c2cc(NCC3CCOCC3)nc(N3Cc4c(cc(CNC5(C)CCC5)cc4C(F)(F)F)C3=O)c2)CCC1 [Compound 335, 2-(4-(1-((4-methyl-4H-1,2,4-triazol-3-yl)methyl)cyclobutyl)-6-(((tetrahydro-2H-pyran-4-yl)methyl)amino)pyridin-2-yl)-6-(((1-methylcyclobutyl)amino)methyl)-4-(trifluoromethyl)isoindolin-1-one] | 6.74 | 6.72 | (1.0x) |
| COCCOCCNc1cc(C2(Cc3nncn3C)CCC2)cc(N2Cc3c(cc(CNC4(C)CCC4)cc3C(F)(F)F)C2=O)n1 [Compound 336, 2-(6-((2-(2-methoxyethoxy)ethyl)amino)-4-(1-((4-methyl-4H-1,2,4-triazol-3-yl)methyl)cyclobutyl)pyridin-2-yl)-6-(((1-methylcyclobutyl)amino)methyl)-4-(trifluoromethyl)isoindolin-1-one] | 7.48 | 7.64 | (0.70x) |
| CN(C)CCNc1cc(C2(Cc3nncn3C)CCC2)cc(N2Cc3c(cc(CNC4(C)CCC4)cc3C(F)(F)F)C2=O)n1 [Compound 337, 2-(6-((2-(dimethylamino)ethyl)amino)-4-(1-((4-methyl-4H-1,2,4-triazol-3-yl)methyl)cyclobutyl)pyridin-2-yl)-6-(((1-methylcyclobutyl)amino)methyl)-4-(trifluoromethyl)isoindolin-1-one] | 5.62 | 5.96 | (0.45x) |
| Cn1cnnc1CC1(c2cc(NCCN3CCCC3=O)nc(N3Cc4c(cc(CNC5(C)CCC5)cc4C(F)(F)F)C3=O)c2)CCC1 [Compound 338, 2-(4-(1-((4-methyl-4H-1,2,4-triazol-3-yl)methyl)cyclobutyl)-6-((2-(2-oxopyrrolidin-1-yl)ethyl)amino)pyridin-2-yl)-6-(((1-methylcyclobutyl)amino)methyl)-4-(trifluoromethyl)isoindolin-1-one] | 6.89 | 6.85 | (1.1x) |
| CC(C)Cc1cc(C2(Cc3nncn3C)CCC2)cc(N2Cc3c(cc(CNC4(C)CCC4)cc3C(F)(F)F)C2=O)n1 [Compound 342, 2-(6-isobutyl-4-(1-((4-methyl-4H-1,2,4-triazol-3-yl)methyl)cyclobutyl)pyridin-2-yl)-6-(((1-methylcyclobutyl)amino)methyl)-4-(trifluoromethyl)isoindolin-1-one formate] | 7.96 | 8.10 | – |
| Cn1cnnc1CC1(c2cccc(N3Cc4c(cc(CNC5(C)CCCC5)cc4C(F)(F)F)C3=O)c2)CC(F)(F)C1 [Compound 344, 2-(3-(3,3-difluoro-1-((4-methyl-4H-1,2,4-triazol-3-yl)methyl)cyclobutyl)phenyl)-6-(((1-methylcyclopentyl)amino)methyl)-4-(trifluoromethyl)isoindolin-1-one formate] | 7.80 | 7.89 | – |

Results, then the compound that gave them:

| pIC50 (Cbl-b) | pIC50 (c-Cbl) | (fold-selectivity) (c-Cbl) | Structure (SMILES) |
| --- | --- | --- | --- |
| 6.28 | 6.44 | (0.68x) | Cn1cnnc1CC1(c2cc(NCC3CCNCC3)nc(N3Cc4c(cc(CNC5(C)CCC5)cc4C(F)(F)F)C3=O)c2)CCC1 [Compound 339, 2-(4-(1-((4-methyl-4H-1,2,4-triazol-3-yl)methyl)cyclobutyl)-6-((piperidin-4-ylmethyl)amino)pyridin-2-yl)-6-(((1-methylcyclobutyl)amino)methyl)-4-(trifluoromethyl)isoindolin-1-one] |
| 6.36 | 6.49 | (0.74x) | Cn1cnnc1CC1(c2cc(NCCN3CCOCC3)nc(N3Cc4c(cc(CNC5(C)CCC5)cc4C(F)(F)F)C3=O)c2)CCC1 [Compound 340, 2-(4-(1-((4-methyl-4H-1,2,4-triazol-3-yl)methyl)cyclobutyl)-6-((2-morpholinoethyl)amino)pyridin-2-yl)-6-(((1-methylcyclobutyl)amino)methyl)-4-(trifluoromethyl)isoindolin-1-one] |
| 7.85 | 8.00 | (0.74x) | Cn1cnnc1CC1(c2cccc(N3Cc4c(cc(CNC5(C)CC(F)C5)cc4C(F)(F)F)C3=O)c2)CC(F)(F)C1 (stereo not shown) [Compound 341, 2-(3-(3,3-difluoro-1-((4-methyl-4H-1,2,4-triazol-3-yl)methyl)cyclobutyl)phenyl)-6-(((3-fluoro-1-methylcyclobutyl)amino)methyl)-4-(trifluoromethyl)isoindolin-1-one] |
| 7.89 | 8.02 | (0.74x) | CCCc1cc(C2(Cc3nncn3C)CCC2)cc(N2Cc3c(cc(CNC4(C)CCC4)cc3C(F)(F)F)C2=O)n1 [Compound 343, 2-(4-(1-((4-methyl-4H-1,2,4-triazol-3-yl)methyl)cyclobutyl)-6-propylpyridin-2-yl)-6-(((1-methylcyclobutyl)amino)methyl)-4-(trifluoromethyl)isoindolin-1-one] |
| 7.96 | 8.00 | (0.92x) | CCCCc1cc(C2(Cc3nncn3C)CCC2)cc(N2Cc3c(cc(CNC4(C)CCC4)cc3C(F)(F)F)C2=O)n1 [Compound 346, 2-(6-butyl-4-(1-((4-methyl-4H-1,2,4-triazol-3-yl)methyl)cyclobutyl)pyridin-2-yl)-6-(((1-methylcyclobutyl)amino)methyl)-4-(trifluoromethyl)isoindolin-1-one] |

Reference: patent publication US20250230147A1, “LACTAMS AS CBL-B INHIBITORS” (Genentech, Inc., priority 2021, published 2025)
